The numbers were not newly measured in US6355677B1, “Adrenoleukodystrophy treatments and drug screening” (The Johns Hopkins University, priority 1998, dated 2002), which cites them from elsewhere.

The conditions of data set [1]: active ingredient of Lorenzo oil; cited from earlier work.
The conditions of data set [2]: in rats; cited from earlier work.

On to `CCCCCCCC/C=C\CCCCCCCCCCCC(=O)O` [erucic acid], for which the Brain entry entry in data set [1] is “does not get into the brain”.
Turning to `O=C(O)Cc1ccccc1` [phenylacetate], the Blood-brain barrier passage entry in data set [2] is on record as “can cross the blood-brain barrier”.
